Measured values: patent US20170112741A1, “AGENT FOR AMELIORATING SKIN SYMPTOM, HAIR GROWTH AGENT OR SLIMMING AGENT” (GOLDCREST MEDICINE INSTITUTE CO., LTD., priority 2014, published 2017)

Columns and labels:
Assay type in all cases: in vivo, human
seborrheic keratosis = test: Treatment of seborrheic keratosis generated from senile plaque by oral cabergoline; details: patient A
Source text: Investigation was made for the treatment of seborrheic keratosis generated from senile plaque. On the back side of the wrist of the right hand of patient A, there was seborrheic keratosis with width of 15 mm×length of 10 mm, which had remained as a problem for 13 years. In summer, elevation of the skin of about 4 mm with blackish brown color occurred.
Furthermore, 2 years ago, seborrheic keratosis with width of 13 mm×length of 9 mm was caused from senile plaque on the back of the right hand, and elevation of the skin of about 2 mm with dark brown color was recognized. […] Thus, it is recognized that the seborrheic keratosis with a short clinical history is more responsive to the treatment.

moles = test: Effect of oral cabergoline on 10 moles of the femoral region of the right leg; details: Jan. 20, 2014, after 7 months oral cabergoline; for Color and shape of mole 1, upper part of side area / Color and shape of mole 2, lower part of side area: Jun. 20, 2013: Black rectangle
Experimental: 10 moles were present within an area having a width of 10 cm and a length of 8 cm extending from the outer side to the front side of the femoral region of the right leg. After 7 months, the state of those 10 moles was observed and the effect of oral administration of cabergoline was investigated.
For the first 4 weeks from […], one tablet (0.25 mg) of carbegoline was administered on Monday and Thursday. The total dose over the 4 weeks was 2 mg. For the following 26 weeks, one tablet of cabergoline was administered on every Thursday. The total dose of cabergoline over the 7-month treatment period was calculated to be 8.5 mg.

prolactin level in blood = test: Prolactin level in blood of patient A (prolactin-producing pituitary adenoma) during cabergoline treatment
Experimental: In view of the dramatic improvement of prolactin level, the doctor ordered that the cabergoline administration for the next 1 month be changed to one tablet/week, and oral administration be carried out before sleeping on Thursday. […] As such, the cabergoline administration was maintained at one tablet/week, and the administration period was extended up to 2 months.
Thus, the treatment regimen using cabergoline from August 15 to October 3 was also determined to be oral administration of one tablet (0.25 mg) on Thursday.

[1] = Slimming effect of cabergoline 0.25 mg/week in patient A
Experimental: Due to an illness, patient A had to undergo the cabergoline treatment from the end of June of year 2013, and for this reason, attempted to lose weight again. Since it was expected that the body weight would be gained back, the target value was set at 56.5 kg, and a long-term plan without any exercise or restricted diet was adopted. However, regular meals were taken and only the overeating was strictly avoided.
Meanwhile, since cabergoline was administered at 0.25 mg/week for 3 months of the measurement period, the total dose of cabergoline was calculated to be 3 mg. […] In this regard, it is considered that no side effect would appear with administration of such a small amount.

head hair / bald area = test: Hair growth on the head of patient A, photographs before and after oral cabergoline
Source text: According to the photograph (1) of patient A (FIG. 1) taken at a restaurant during travel in Shonai region of Yamagata Prefecture on Sep. 16, 2010, the head of patient A from the upper forehead to the crown was quite bald. Only a small amount of hair was left right above the forehead. Patient A was […] at the time of taking the photo. Since the cabergoline administration was started on Jun. 20, 2013, patient A was […] at that time, which was 2 years and 9 months after taking the photograph (1), and thus, aging further progressed so that the hair became thinner and the hair loss progressed.
The image of the occipital region of patient A taken from the back side on Sep. 16, 2010, is shown in the photograph (2) (FIG. 2).
In the period from Jun. 20, 2013 (Thursday) to Jul. 15, 2013 (Monday), one tablet of 0.25 mg cabergoline was orally administered twice per week, on Monday and Thursday, and thus a total of 2 mg of cabergoline was administered over one month. From July 18, the administration of cabergoline was changed from two tablets per week to one tablet per week. The total dose of cabergoline administered from Jul. 18, 2013 to Jan. 20, 2014 was about 6 mg, and thus, the total amount of cabergoline administered after the start of administration was calculated to be 8 mg.
Images of the frontal region and the occipital region of patient A taken on Feb. 27, 2014 are shown as photograph (3) (FIG. 3) and photograph (4) (FIG. 4), respectively.

[2] = listed as novel skin treatment agent
[3] = Jun. 20, 2013: Dark brown circle
[4] = patient A, 0.25 mg/week, November 14
[5] = patient A, 0.25 mg/week, November 28
[6] = patient A, 0.25 mg/week, October 3
[7] = patient A, 0.25 mg/week, October 17
[8] = patient A, 0.25 mg/week, October 31
[9] = patient A, 0.25 mg/week, Sep. 5, 2013 (start of measurement period)
[10] = patient A, 0.25 mg/week, September 19
[11] = Feb. 27, 2014 vs Sep. 16, 2010, oral cabergoline since Jun. 20, 2013

In the case of `C=CCN1C[C@H](C(=O)N(CCCN(C)C)C(=O)NCC)C[C@@H]2c3cccc4[nH]cc(c34)C[C@H]21` [cabergoline], the “Color of seborrheic keratosis on back side of right wrist” value (seborrheic keratosis; 13 years history, oral cabergoline over the last year) is reported as “faded from blackish brown to brown”, the “Color of seborrheic keratosis on the back of the right hand” value (seborrheic keratosis; as of March 22, initially dark brown) is reported as “faded to pale yellow brown” and the “Elevation of the skin, seborrheic keratosis on back side of right wrist” value (seborrheic keratosis; lesion width 15 mm×length 10 mm, 13 years history, elevation about 4 mm, oral cabergoline over the last year) is reported as “became flattened”. The “Appearance of all 4 moles on the front area” value (moles) was “turned into faint flesh colored, pigmented macules”, the “Diameter of the 2 light brown circular moles sandwiching the red moles of the middle area” value (moles) was 1 mm and the “Diameter of the remaining 2 small front-area moles” value (moles) was 1 mm. The “Size change of the front-area moles of 4.5 mm and 3 mm” value (moles) was “hardly shrunk”, the “Appearance of mole 7, upper part of front area” value (moles; Jun. 20, 2013: 3.3 × 3.1 Brown circle-like, cell continues: flesh color) was “Turned into weak pigmented macules having” and the “Size change of mole 7, upper part of front area” value (moles; Jun. 20, 2013: 3.3 × 3.1 mm) was “flesh color with almost no change in size”. For the same molecule, the “Color and shape of mole 1, upper part of side area” value (moles) was “dark brown rectangular mole”, the “Color and shape of mole 2, lower part of side area” value (moles) was “faded light brown oval mole with an unclear border” and the “Color and shape of mole 1, upper part of side area” value (moles; [2]) was “Dark brown rectangle”. For the same molecule, the “Color and shape of mole 2, lower part of side area” value (moles; [2]) was “Faint, light brown rectangle”, the “Color and shape of mole 4, central left part of middle area” value (moles; Jun. 20, 2013: Brown rectangle) was “Light red circle-like” and the “Color and shape of mole 3, upper part of middle area” value (moles; [3]) was “Faint, light brown circle”. For the same molecule, the “Color and shape of mole 6, lower part of middle area” value (moles; [3]) was “Dark brown circle”, the “Color and shape of mole 5, central right part of middle area” value (moles; Jun. 20, 2013: Dark brown oval) was “Red circle-like” and the “prolactin level in blood” value (prolactin level in blood; August 14, after further 4 weeks at one tablet (0.25 mg)/week oral) was 47.8 ng/mL. The “prolactin level in blood” value (prolactin level in blood; July 17, after 4 weeks at 2 mg/4 weeks oral, level on April 18 was 20888 ng/mL) was 101.8 ng/mL, the prolactin level in blood (earlier level as restated) (prolactin level in blood; level before the decrease seen on August 14) was 102 ng/mL and the Hungry feeling ([1]; patient A during weight loss under cabergoline) was “no hungry feeling”. For the same molecule, the Waist size ([1]; patient A under cabergoline, reduced from 91 cm at a maximum) was 83 cm, the Body weight course ([1]; patient A under cabergoline, target value 56.5 kg, no exercise or restricted diet) was “steadily reduced to the target value” and the “Obesity BMI” value ([1]; patient A, 0.25 mg/week, December 12) was 24.0. The “Body weight” value ([1]; patient A, 0.25 mg/week, December 12 (15 weeks)) was 56.1 kg, the “Weight loss” value ([1]; patient A, 0.25 mg/week, December 12, since previous measurement) was 0.7 kg and the “Total weight loss (%)” value ([1]; patient A, 0.25 mg/week, December 12, vs Sep. 5, 2013) was −10.0%. For the same molecule, the “Body weight” value [1, 4] was 57.5 kg, the “Obesity BMI” value [1, 4] was 24.6 and the “Weight loss” value ([1]; patient A, 0.25 mg/week, November 14, since previous measurement) was 0.8 kg. For the same molecule, the “Total weight loss (%)” value ([1]; patient A, 0.25 mg/week, November 14, vs Sep. 5, 2013) was −7.7%, the “Body weight” value [1, 5] was 56.8 kg and the “Obesity BMI” value [1, 5] was 24.3. For the same molecule, the “Weight loss” value ([1]; patient A, 0.25 mg/week, November 28, since previous measurement) was 0.7 kg, the “Total weight loss (%)” value ([1]; patient A, 0.25 mg/week, November 28, vs Sep. 5, 2013) was −8.9% and the “Body weight” value [1, 6] was 60.1 kg. The “Obesity BMI” value [1, 6] was 25.7, the “Weight loss” value ([1]; patient A, 0.25 mg/week, October 3, since previous measurement) was 1.2 kg and the “Total weight loss (%)” value ([1]; patient A, 0.25 mg/week, October 3, vs Sep. 5, 2013) was −3.5%. The “Body weight” value [1, 7] was 59.1 kg, the “Obesity BMI” value [1, 7] was 25.2 and the “Weight loss” value ([1]; patient A, 0.25 mg/week, October 17, since previous measurement) was 1.0 kg. For the same molecule, the “Total weight loss (%)” value ([1]; patient A, 0.25 mg/week, October 17, vs Sep. 5, 2013) was −5.1%, the “Body weight” value [1, 8] was 58.3 kg and the “Obesity BMI” value [1, 8] was 24.9. The “Weight loss” value ([1]; patient A, 0.25 mg/week, October 31, since previous measurement) was 0.8 kg, the “Total weight loss (%)” value ([1]; patient A, 0.25 mg/week, October 31, vs Sep. 5, 2013) was −6.4% and the “Body weight” value [1, 9] was 62.3 kg. The “Obesity BMI” value [1, 9] was 26.6, the “Body weight” value [1, 10] was 61.3 kg and the “Obesity BMI” value [1, 10] was 26.2. For the same molecule, the “Weight loss” value ([1]; patient A, 0.25 mg/week, September 19, since previous measurement) was 1.0 kg, the “Total weight loss (%)” value ([1]; patient A, 0.25 mg/week, September 19, vs Sep. 5, 2013) was −1.6% and the “Time after which BMI was decreased to a normal level” value ([1]; patient A, oral administration, normal BMI 21.5 to 24.9) was 8 weeks. The “Body weight” value ([1]; patient A, Mar. 14, 2015) was 54.2 kg, the “Obesity BMI” value ([1]; patient A, Mar. 14, 2015) was 23.2 and the “Weight loss” value ([1]; patient A, Mar. 14, 2015, since previous measurement) was 1.9 kg. The “Total weight loss (%)” value ([1]; patient A, Mar. 14, 2015, vs Sep. 5, 2013) was −13.0%, the “Bald area, frontal region of the head (photograph (3))” value (head hair / bald area; [11]) was “clearly reduced” and the “Bald area, region from the crown to the occipital region (photograph (4) vs (2))” value (head hair / bald area; [11]) was “the bald area was reduced”. For the same molecule, the “Hairs in the region from the crown to the occipital region” value (head hair / bald area; [11]) was “hairs were increased” and the “Hair in the frontal region of the head (photograph (3))” value (head hair / bald area; Feb. 27, 2014 vs Sep. 16, 2010, oral cabergoline since Jun. 20, 2013, about 8 mg in total by Jan. 20, 2014) was “short black hairs were found in the previously bald region”.
